Experimental data: patent US20080312305A1, “Imidazoles as Gaba- B Receptor Modulators” (priority 2005, published 2008)

Biological target: T1, GABAB receptor (GABABR1a/GABABR2) (Homo sapiens, UniProt O75899+Q9UBS5)
T1 construct: expressed in transfected cells; membranes prepared from the cells
Test: [35S]-GTPγS binding assay, potency of positive allosteric modulator on GABA EC50
Format: biochemical
Conditions: potency of the positive allosteric modulator (log EC50 for GABA plotted against log modulator concentration)
Source text: GABABR1a and GABABR2 were cloned from human brain cDNA and subcloned into pCI-Neo (Promega) and pALTER-1 (Promega), respectively. A GABABR1a-Gαqi5 fusion protein expression vector was constructed using the pCI-Neo-GABABR1a cDNA plasmid and pLEC1-Gαqi5 (Molecular Devices, Calif.). In order to make the Gαqi5 pertussis toxin insensitive, Cys356 was mutated to Gly using standard PCR methodology with the primers 5′-[…]-3′ (forward) and 5′-GCGGCCG […]-3′ (reverse). The Gαqi5mut cDNA was ligated into the BamHI and NotI sites of pcDNA3.0 (Invitrogen). The GABABR1a coding sequence was amplified by PCR from pCI-Neo-GABABR1a using the primers, 5′-[…]-3′ (forward) and 5′-[…]-3′ (reverse) and subcloned into the BamHI site of pcDNA3.0-Gαqi5mut.
For generation of stable cell lines, CHO-K1 cells were grown in Nut mix F-12 (Ham) media supplemented with 10% FBS, 100 U/ml Penicillin and 100 μg/ml Streptomycin at 37° C. in a humidified CO2-incubator. […]
[^35S]-GTPγS binding assays were performed at 30° C. for 45 min in membrane buffer (100 mM NaCl, […], 1 mM EDTA, 50 mM HEPES, pH 7.4) containing 0.025 μg/μl of membrane protein (prepared from the cell lines described above) with 0.01% bovine serum albumin (fatty acid free), 10 μM GDP, 100 μM DTT and 0.53 nM [^35S]-GTPγS (Amersham-Pharmacia Biotech) in a final volume of 200 μl. Non-specific binding was determined in the presence of 20 μM GTPγS. […]

T1 sequence (Q9UBS5 15-961 limits assumed): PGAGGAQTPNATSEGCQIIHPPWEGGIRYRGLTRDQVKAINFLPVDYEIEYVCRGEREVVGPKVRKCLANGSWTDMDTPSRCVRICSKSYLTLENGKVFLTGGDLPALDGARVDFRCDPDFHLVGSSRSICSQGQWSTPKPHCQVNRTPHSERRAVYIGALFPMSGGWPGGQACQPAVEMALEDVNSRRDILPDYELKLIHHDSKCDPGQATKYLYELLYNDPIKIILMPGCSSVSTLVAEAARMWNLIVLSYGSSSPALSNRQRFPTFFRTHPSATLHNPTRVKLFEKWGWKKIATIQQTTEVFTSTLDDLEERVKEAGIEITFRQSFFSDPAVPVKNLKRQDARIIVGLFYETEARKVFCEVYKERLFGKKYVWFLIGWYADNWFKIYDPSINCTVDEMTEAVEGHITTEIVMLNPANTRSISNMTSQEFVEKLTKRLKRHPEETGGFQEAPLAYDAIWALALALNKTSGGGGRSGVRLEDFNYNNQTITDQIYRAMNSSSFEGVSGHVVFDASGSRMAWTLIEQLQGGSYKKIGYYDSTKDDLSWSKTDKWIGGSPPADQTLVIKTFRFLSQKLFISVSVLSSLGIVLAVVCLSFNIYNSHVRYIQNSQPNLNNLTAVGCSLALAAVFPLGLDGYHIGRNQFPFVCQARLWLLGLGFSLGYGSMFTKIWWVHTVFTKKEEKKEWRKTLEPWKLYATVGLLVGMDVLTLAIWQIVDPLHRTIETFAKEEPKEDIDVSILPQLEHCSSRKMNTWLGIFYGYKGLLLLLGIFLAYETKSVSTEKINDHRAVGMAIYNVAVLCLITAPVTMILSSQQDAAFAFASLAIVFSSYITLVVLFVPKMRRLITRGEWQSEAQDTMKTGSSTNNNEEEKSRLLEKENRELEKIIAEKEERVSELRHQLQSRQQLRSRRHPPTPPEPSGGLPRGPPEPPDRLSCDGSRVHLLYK
T1 sequence (O75899 42-941): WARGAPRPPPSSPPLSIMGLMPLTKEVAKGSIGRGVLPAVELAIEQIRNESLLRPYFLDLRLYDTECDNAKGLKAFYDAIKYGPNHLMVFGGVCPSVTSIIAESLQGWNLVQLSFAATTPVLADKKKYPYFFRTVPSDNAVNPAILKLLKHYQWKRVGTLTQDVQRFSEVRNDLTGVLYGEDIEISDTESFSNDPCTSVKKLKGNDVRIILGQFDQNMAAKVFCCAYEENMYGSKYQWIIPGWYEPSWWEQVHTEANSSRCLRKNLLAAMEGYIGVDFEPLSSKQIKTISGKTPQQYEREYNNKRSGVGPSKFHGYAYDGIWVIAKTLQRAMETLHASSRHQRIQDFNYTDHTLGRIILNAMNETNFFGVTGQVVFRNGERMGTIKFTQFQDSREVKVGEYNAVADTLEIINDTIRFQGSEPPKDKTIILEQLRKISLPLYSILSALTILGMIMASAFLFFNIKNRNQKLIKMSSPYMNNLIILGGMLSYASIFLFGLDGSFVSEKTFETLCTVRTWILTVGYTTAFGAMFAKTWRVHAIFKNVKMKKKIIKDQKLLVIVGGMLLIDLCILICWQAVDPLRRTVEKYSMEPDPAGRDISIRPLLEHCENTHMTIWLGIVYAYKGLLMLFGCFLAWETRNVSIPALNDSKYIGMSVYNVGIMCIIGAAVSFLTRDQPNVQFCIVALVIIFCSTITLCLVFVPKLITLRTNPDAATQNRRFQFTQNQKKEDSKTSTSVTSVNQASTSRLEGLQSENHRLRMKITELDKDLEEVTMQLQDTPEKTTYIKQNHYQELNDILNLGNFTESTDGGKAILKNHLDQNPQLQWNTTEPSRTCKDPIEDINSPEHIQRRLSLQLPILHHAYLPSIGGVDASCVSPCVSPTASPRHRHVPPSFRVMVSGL

Row | EC50 [µM] | SMILES
1 | 3.68 | CCCc1nc(NC(=O)C2COc3ccccc3O2)c(C(=O)OC(C)(C)C)n1CC(C)C (centres unmarked) [Example 21, Tert-butyl 4-[(2,3-dihydro-1,4-benzodioxin-2-ylcarbonyl)amino]-1-isobutyl-2-propyl-1H-imidazole-5-carboxylate]
2 | 5.54 | CCCc1nc(NC(=O)C2COc3ccccc3O2)c(C(=O)OCC)n1CC(C)C (centres unmarked) [Example 25, Ethyl 4-[(2,3-dihydro-1,4-benzodioxin-2-ylcarbonyl)amino]-1-isobutyl-2-propyl-1H-imidazole-5-carboxylate]
